Read-outs that look alike come from different tables or passages of the source.
Key:
[1] = system: MARV GP-pseudotyped vesicular stomatitis virus; assay: microbe, parasite or virus in culture; assay type: cell-based, Marburg virus; conditions: for inhibition at 10 µM / inhibition at 50 µM: Vesicular stomatitis virus, HEK-293T, read-out: MASV VPEN (% activity)
[2] = system: LASV GP-pseudotyped vesicular stomatitis virus; assay: microbe, parasite or virus in culture; assay type: cell-based, Lassa virus; conditions: Vesicular stomatitis virus, HEK-293T, read-out: LASV VPEN (% activity)
[3] = system: EBOV GP-pseudotyped vesicular stomatitis virus; assay: microbe, parasite or virus in culture; assay type: cell-based, Ebola virus; conditions: for inhibition at 10 µM / inhibition at 50 µM: Zaire ebolavirus, HEK-293T, read-out: EBOV VPEN (% activity)
[4] = system: EBOV; assay type: cell-based, Ebola virus
[5] = system: LASV; assay type: cell-based, Lassa virus
[6] = system: Bacillus anthracis; assay: microbe, parasite or virus in culture; assay type: cell-based; conditions: J774.A1, 15 h, read-out: Bacillus anthracis ICR (% protection)
[7] = system: Coxiella burnetii; assay: microbe, parasite or virus in culture; assay type: cell-based; conditions: Vero, 168 h, read-out: Coxiella burnetii ICR (% protection)
[8] = system: Francisella tularensis; assay type: cell-based; conditions: 50 µM
[9] = system: Francisella tularensis; assay: microbe, parasite or virus in culture; assay type: cell-based; conditions: J774.A1, 15 h, read-out: Fransciella tularensis ICR (% protection)
[10] = system: Bacillus anthracis; assay type: cell-based; conditions: 50 µM
[11] = humans; no reference given; cited from earlier work
[12] = system: EBOV; assay: microbe, parasite or virus in culture; assay type: cell-based, Ebola virus
[13] = system: MARV; assay: organism not typed; assay type: cell-based, Marburg virus

With CNCCCC1c2ccccc2C=Cc2ccccc21 [Protriptyline] the inhibition at 10 µM [1] was 80%, the inhibition at 10 µM [2] was 28% and the inhibition at 10 µM [3] was 83%.

In the case of CN1CCCN=C1COC(=O)C(O)(c1ccccc1)C1CCCCC1 (centres unmarked) [Oxyphencyclimine], the “EBOV VR” value ([4]; 50 µM) is reported as “−”, the inhibition at 50 µM [1] is reported as 89% and the inhibition at 50 µM [2] is reported as 28%. For the same compound, the inhibition at 50 µM [3] was 95% and the “LASV VR” value ([5]; 50 µM) was “−”.

Compound CC(C)(C)NC[C@H](O)COc1ccccc1C1CCCC1 [Penbutolol] has an inhibition at 10 µM ([1]; 10 µM) of 81%, an inhibition at 10 µM ([2]; 10 µM) of 67% and an inhibition at 10 µM ([3]; 10 µM) of 98%.

In the case of CNCCC(Oc1ccc(C(F)(F)F)cc1)c1ccccc1 (centres unmarked) [Fluoxetine], the “EBOV VR” value ([4]; 10 µM) is reported as “−”, the inhibition at 10 µM ([1]; 10 µM) is reported as 98% and the inhibition at 10 µM ([2]; 10 µM) is reported as 76%. The inhibition at 10 µM ([3]; 10 µM) was 96% and the “LASV VR” value ([5]; 10 µM) was “−”.

For OC(CCN1CCCCC1)(c1ccccc1)C1CCCCC1 (centres unmarked) [Trihexyphenidyl], the “EBOV VR” value [4] was “−”, the inhibition at 10 µM [1] was 91% and the inhibition at 10 µM [2] was 52%. The inhibition at 10 µM [3] was 97% and the “LASV VR” value [5] was “−”.

For COc1c(C)c2c(c(O)c1C/C=C(\C)CCC(=O)OCCN1CCOCC1)C(=O)OC2 [Mycophenolate mofetil], the “EBOV VR” value ([4]; 50 µM) was “−”, the inhibition at 50 µM [1] was 81% and the inhibition at 50 µM [2] was 69%. The inhibition at 50 µM [3] was 91% and the “LASV VR” value ([5]; 50 µM) was “−”.

In the case of CC[C@H]1OC(=O)[C@H](C)[C@@H](O[C@H]2C[C@@](C)(OC)[C@@H](O)[C@H](C)O2)[C@H](C)[C@@H](O[C@@H]2O[C@H](C)C[C@H](N(C)C)[C@H]2O)[C@](C)(O)C[C@@H](C)C(=O)[C@H](C)[C@@H](O)[C@]1(C)O [Erythromycin], the inhibition at 50 µM [6] is reported as 96%, the inhibition of growth at 50 µM [7] is reported as 100% and the “Fransciella tularensis Broth (% protection)” value [8] is reported as “+”. For the same compound, the “EBOV VR” value ([4]; 10 µM) was “−”, the inhibition at 50 µM [9] was 104% and the “Bacillus anthracis Broth (% protection)” value [10] was “+”. The inhibition at 10 µM ([1]; 10 µM) was 98%, the inhibition at 10 µM ([2]; 10 µM) was 60% and the inhibition at 10 µM ([3]; 10 µM) was 96%. The “LASV VR” value ([5]; 10 µM) was “−”.

In the case of CC[C@H]1OC(=O)[C@H](C)[C@@H](O[C@H]2C[C@@](C)(OC)[C@@H](O)[C@H](C)O2)[C@H](C)[C@@H](O[C@@H]2O[C@H](C)C[C@H](N(C)C)[C@H]2O)[C@](C)(OC)C[C@@H](C)C(=O)[C@H](C)[C@@H](O)[C@]1(C)O [Clarithromycin], the bioavailable [11] is given as ~50%.

CN(C)[C@@H]1C(O)=C(C(N)=O)C(=O)[C@@]2(O)C(O)=C3C(=O)c4c(O)cccc4[C@@](C)(O)[C@H]3C[C@@H]12 [Tetracycline] gave an inhibition at 50 µM [6] of 105%, an inhibition of growth at 50 µM [7] of 0% and an inhibition at 50 µM [9] of 103%.

With CCCCOc1cc(C(=O)NCCN(CC)CC)c2ccccc2n1 [Dibucaine] the “EBOV VR” value ([4]; 10 µM) was “−”, the inhibition at 10 µM ([1]; 10 µM) was 93% and the inhibition at 10 µM ([2]; 10 µM) was 49%. For the same compound, the inhibition at 10 µM ([3]; 10 µM) was 99%.

With CCC[C@@H]1C[C@@H](C(=O)N[C@@H]([C@H]2O[C@H](SC)[C@H](O)[C@@H](O)[C@H]2O)[C@H](C)Cl)N(C)C1 [Clindamycin] the inhibition of growth at 50 µM [7] was 0% and the inhibition at 50 µM [9] was 83%.

With CC(C(=O)O)c1ccc2c(c1)[nH]c1ccc(Cl)cc12 (centres unmarked) [Carprofen] the “EBOV VR” value ([4]; 10 µM) was “−”, the inhibition at 10 µM ([1]; 10 µM) was 88% and the inhibition at 10 µM ([2]; 10 µM) was 50%. For the same compound, the inhibition at 10 µM ([3]; 10 µM) was 94% and the “LASV VR” value ([5]; 10 µM) was “−”.

With CN(C)CCOc1ccc(/C(=C(/CCCl)c2ccccc2)c2ccccc2)cc1 [Toremifene] the inhibition at 10 µM ([1]; 10 µM) was 96%, the inhibition at 10 µM ([2]; 10 µM) was 76% and the inhibition at 10 µM ([3]; 10 µM) was 97%.

With CN1CCC(=C2c3ccccc3CC(=O)c3sccc32)CC1 [Ketotifen] the “EBOV VR” value ([4]; 50 µM) was “+”, the inhibition at 50 µM [1] was 97% and the inhibition at 50 µM [2] was 33%. For the same compound, the inhibition at 50 µM [3] was 99% and the “LASV VR” value ([5]; 50 µM) was “−”.

With CN(C)[C@@H]1C(O)=C(C(N)=O)C(=O)[C@@]2(O)C(O)=C3C(=O)c4c(O)cccc4[C@@](C)(O)[C@H]3[C@H](O)[C@@H]12 [Oxytetracycline] the inhibition at 50 µM [6] was 94%, the inhibition of growth at 50 µM [7] was 0% and the “Fransciella tularensis Broth (% protection)” value [8] was “+”. The inhibition at 50 µM [9] was 92% and the “Bacillus anthracis Broth (% protection)” value [10] was “+”.

In the case of C[C@]12CC[C@@H]3c4ccc(O)cc4CC[C@H]3[C@@H]1CC[C@@H]2O [Estradiol], the “EBOV VR” value ([4]; 10 µM) is reported as “−”, the inhibition at 10 µM ([1]; 10 µM) is reported as 98% and the inhibition at 10 µM ([2]; 10 µM) is reported as 50%. For the same compound, the inhibition at 10 µM ([3]; 10 µM) was 93% and the “LASV VR” value ([5]; 10 µM) was “−”.

With CCN(CC)CCCNc1ccnc2cc(Cl)ccc12 [AQ-13, Aminoquinoline-13] the EC50 ([12]; read-out: EC50, EBOV Replication) was 21 µM, the EC90 ([12]; read-out: EC90, EBOV Replication) was 39 µM and the EC50 ([13]; read-out: EC50, MARV Replication) was 42 µM. The EC90 ([13]; read-out: EC90, MARV Replication) was 48 µM, the EC50 ([1]; read-out: EC50, MARV Entry) was 4.3 µM and the EC90 ([1]; read-out: EC90, MARV Entry) was 16 µM. The EC50 ([3]; read-out: EC50, EBOV Entry) was 4.3 µM and the EC90 ([3]; read-out: EC90, EBOV Entry) was 20 µM.

With CNCC(O)c1ccc(OC(=O)C(C)(C)C)c(OC(=O)C(C)(C)C)c1 (centres unmarked) [Dipivefrin] the “EBOV VR” value ([4]; 50 µM) was “−”, the inhibition at 50 µM [1] was 90% and the inhibition at 50 µM [2] was 90%. For the same compound, the inhibition at 50 µM [3] was 94% and the “LASV VR” value ([5]; 50 µM) was “−”.

For CCN[C@@H]1C[C@H](N)[C@@H](O[C@H]2OC(CN)=CC[C@H]2N)[C@H](O)[C@H]1O[C@H]1OC[C@](C)(O)[C@H](NC)[C@H]1O [Netilmicin], the inhibition at 50 µM [6] was 98%, the inhibition of growth at 50 µM [7] was 100% and the “Fransciella tularensis Broth (% protection)” value [8] was “+”. The inhibition at 50 µM [9] was -2% and the “Bacillus anthracis Broth (% protection)” value [10] was “+”.

CCOC(=O)C1=C(COCCN)NC(C)=C(C(=O)OC)C1c1ccccc1Cl (centres unmarked) [Amlodipine] showed an inhibition at 10 µM ([1]; 10 µM) of 93%, an inhibition at 10 µM ([2]; 10 µM) of 61% and an inhibition at 10 µM ([3]; 10 µM) of 93%.

With CCC(=O)O[C@@](Cc1ccccc1)(c1ccccc1)[C@@H](C)CN(C)C [Levopropoxyphene] the inhibition at 50 µM [1] was 89%, the inhibition at 50 µM [2] was 79% and the inhibition at 50 µM [3] was 98%.

With CO/N=C1\CN(c2nc3c(cc2F)c(=O)c(C(=O)O)cn3C2CC2)CC1CN (centres unmarked) [Gemifloxacin] the inhibition at 50 µM [6] was 97%, the inhibition of growth at 50 µM [7] was 0% and the “Fransciella tularensis Broth (% protection)” value [8] was “−”. For the same compound, the inhibition at 50 µM [9] was 91% and the “Bacillus anthracis Broth (% protection)” value [10] was “−”.

Work on CN(C)CC[C@@H](c1ccc(Br)cc1)c1ccccn1 [Dexbrompheniramine] yielded an inhibition at 50 µM [1] of 80%, an inhibition at 50 µM [2] of 74% and an inhibition at 50 µM [3] of 85%.

With CCOC(=O)C1(c2ccccc2)CCN(CCC(C#N)(c2ccccc2)c2ccccc2)CC1 [Diphenoxylate] the “EBOV VR” value ([4]; 50 µM) was “+”, the inhibition at 50 µM [1] was 95% and the inhibition at 50 µM [2] was 83%. The inhibition at 50 µM [3] was 96%.

In the case of CN1CCC(OC(c2ccccc2)c2ccccc2)CC1 [Diphenylpyraline], the “EBOV VR” value ([4]; 50 µM) is reported as “+”, the inhibition at 50 µM [1] is reported as 85% and the inhibition at 50 µM [2] is reported as 22%. For the same compound, the inhibition at 50 µM [3] was 96% and the “LASV VR” value ([5]; 50 µM) was “−”.

CN1CCN(CCCN2c3ccccc3Sc3ccc(Cl)cc32)CC1 [Prochlorperazine] showed an inhibition at 10 µM ([1]; 10 µM) of 93%, an inhibition at 10 µM ([2]; 10 µM) of 70% and an inhibition at 10 µM ([3]; 10 µM) of 95%.

In the case of CN(C)c1ccc(O)c2c1C[C@H]1C[C@H]3[C@H](N(C)C)C(O)=C(C(N)=O)C(=O)[C@@]3(O)C(O)=C1C2=O [Minocycline], the inhibition at 50 µM [6] is reported as 95%, the inhibition of growth at 50 µM [7] is reported as 0% and the “Fransciella tularensis Broth (% protection)” value [8] is reported as “−”. For the same compound, the inhibition at 50 µM [9] was 92% and the “Bacillus anthracis Broth (% protection)” value [10] was “−”.

With Fc1ccc([C@@H]2CCNC[C@H]2COc2ccc3c(c2)OCO3)cc1 [Paroxetine] the “EBOV VR” value ([4]; 10 µM) was “−”, the inhibition at 10 µM ([1]; 10 µM) was 89% and the inhibition at 10 µM ([2]; 10 µM) was 6%. The inhibition at 10 µM ([3]; 10 µM) was 98% and the “LASV VR” value ([5]; 10 µM) was “−”.

In the case of OC(CCN1CCCCC1)(c1ccccc1)C1CC2C=CC1C2 (centres unmarked) [Biperiden], the “EBOV VR” value ([4]; 50 µM) is reported as “−”, the inhibition at 50 µM [1] is reported as 89% and the inhibition at 50 µM [2] is reported as 27%. For the same compound, the inhibition at 50 µM [3] was 98% and the “LASV VR” value ([5]; 50 µM) was “−”.
